Measured values from a compilation of properties of binary mixtures (doi:10.1016/j.molliq.2020.114573).

Assay: xn = mol fraction of the nth substance listed
Settings: 101.3 kPa

CCCC[n+]1ccn(C)c1.O=S(=O)([N-]S(=O)(=O)C(F)(F)F)C(F)(F)F + CC1COC(=O)O1
x1 = 1
Settings | viscosity [mPa·s]
293.15 K | 63.1
298.15 K | 50.5
303.15 K | 41.13
313.15 K | 28.4
318.15 K | 24.03
323.15 K | 20.54
333.15 K | 15.91
338.15 K | 14.02
343.15 K | 12.37
348.15 K | 10.91

CC[n+]1ccn(C)c1.O=S(=O)([N-]S(=O)(=O)C(F)(F)F)C(F)(F)F + CC1COC(=O)O1
Settings | viscosity [mPa·s]
288.15 K, x1 = 0.1 | 4.724
288.15 K, x1 = 0.2127 | 7.25
288.15 K, x1 = 0.3007 | 9.74
288.15 K, x1 = 0.4227 | 14.35
288.15 K, x1 = 0.5146 | 18.39
288.15 K, x1 = 0.6015 | 23.02
288.15 K, x1 = 0.658 | 25.85
288.15 K, x1 = 0.7004 | 28.44
288.15 K, x1 = 0.7601 | 31.76
288.15 K, x1 = 0.8098 | 35.48
288.15 K, x1 = 0.8657 | 38.62
288.15 K, x1 = 0.8868 | 40.67
288.15 K, x1 = 0.9533 | 44.93
288.15 K, x1 = 1 | 47.8
293.15 K, x1 = 0.1 | 4.184
293.15 K, x1 = 0.2127 | 6.34
293.15 K, x1 = 0.4227 | 11.98
293.15 K, x1 = 0.5146 | 15.03
293.15 K, x1 = 0.6015 | 19.33
293.15 K, x1 = 0.658 | 21.63
293.15 K, x1 = 0.7004 | 23.75
293.15 K, x1 = 0.7601 | 26.4
293.15 K, x1 = 0.7977 | 28.37
293.15 K, x1 = 0.8098 | 29.37
293.15 K, x1 = 0.8657 | 31.88
293.15 K, x1 = 0.8868 | 33.56
293.15 K, x1 = 0.9533 | 36.88
298.15 K, x1 = 0.1 | 3.737
298.15 K, x1 = 0.3007 | 7.34
298.15 K, x1 = 0.4227 | 10.32
298.15 K, x1 = 0.5146 | 12.87
298.15 K, x1 = 0.6015 | 16.3
298.15 K, x1 = 0.658 | 18.51
298.15 K, x1 = 0.7601 | 22.25
298.15 K, x1 = 0.7977 | 23.88
298.15 K, x1 = 0.8098 | 24.66
298.15 K, x1 = 0.8657 | 26.69
298.15 K, x1 = 0.8868 | 28.06
298.15 K, x1 = 0.9533 | 30.76
298.15 K, x1 = 1 | 32.42
303.15 K, x1 = 0.2127 | 4.96
303.15 K, x1 = 0.3007 | 6.46
303.15 K, x1 = 0.5146 | 11.13
303.15 K, x1 = 0.6015 | 14.61
303.15 K, x1 = 0.658 | 16.21
303.15 K, x1 = 0.7004 | 17.58
303.15 K, x1 = 0.7977 | 20.34
303.15 K, x1 = 0.8098 | 20.96
303.15 K, x1 = 0.8657 | 22.62
303.15 K, x1 = 0.8868 | 23.76
303.15 K, x1 = 0.9533 | 25.94
303.15 K, x1 = 1 | 27.26
308.15 K, x1 = 0.1 | 3.037
308.15 K, x1 = 0.2127 | 4.435
308.15 K, x1 = 0.3007 | 5.73
308.15 K, x1 = 0.5146 | 9.72
308.15 K, x1 = 0.658 | 14.09
308.15 K, x1 = 0.7004 | 15.35
308.15 K, x1 = 0.7977 | 17.84
308.15 K, x1 = 0.8098 | 18.26
308.15 K, x1 = 0.8657 | 19.38
308.15 K, x1 = 0.8868 | 20.35
308.15 K, x1 = 0.9533 | 22.14
313.15 K, x1 = 0.1 | 2.762
313.15 K, x1 = 0.2127 | 3.99
313.15 K, x1 = 0.3007 | 5.13
313.15 K, x1 = 0.4227 | 6.99
313.15 K, x1 = 0.5146 | 8.55
313.15 K, x1 = 0.6015 | 10.89
313.15 K, x1 = 0.658 | 12.21
313.15 K, x1 = 0.7004 | 13.32
313.15 K, x1 = 0.7977 | 15.7
313.15 K, x1 = 0.8657 | 17.2
313.15 K, x1 = 0.8868 | 17.89
313.15 K, x1 = 0.9533 | 19.08
318.15 K, x1 = 0.1 | 2.524
318.15 K, x1 = 0.2127 | 3.613
318.15 K, x1 = 0.4227 | 6.24
318.15 K, x1 = 0.5146 | 7.6
318.15 K, x1 = 0.658 | 10.64
318.15 K, x1 = 0.7601 | 12.82
318.15 K, x1 = 0.7977 | 13.74
318.15 K, x1 = 0.8098 | 14.09
318.15 K, x1 = 0.8657 | 15.18
318.15 K, x1 = 0.8868 | 15.85
318.15 K, x1 = 1 | 17.37
323.15 K, x1 = 0.1 | 2.318
323.15 K, x1 = 0.2127 | 3.292
323.15 K, x1 = 0.3007 | 4.173
323.15 K, x1 = 0.4227 | 5.6
323.15 K, x1 = 0.5146 | 6.79
323.15 K, x1 = 0.658 | 9.31
323.15 K, x1 = 0.7004 | 10.12
323.15 K, x1 = 0.7601 | 11.2
323.15 K, x1 = 0.7977 | 11.96
323.15 K, x1 = 0.8098 | 12.34
323.15 K, x1 = 0.8657 | 13.32
323.15 K, x1 = 0.8868 | 13.92
323.15 K, x1 = 0.9533 | 15.09
323.15 K, x1 = 1 | 15.34
328.15 K, x1 = 0.1 | 2.138
328.15 K, x1 = 0.3007 | 3.8
328.15 K, x1 = 0.6015 | 7.37
328.15 K, x1 = 0.658 | 8.23
328.15 K, x1 = 0.7004 | 8.93
328.15 K, x1 = 0.8098 | 10.81
328.15 K, x1 = 0.8657 | 11.71
328.15 K, x1 = 0.8868 | 12.21
328.15 K, x1 = 0.9533 | 13.31
328.15 K, x1 = 1 | 13.63
333.15 K, x1 = 0.2127 | 2.771
333.15 K, x1 = 0.4227 | 4.607
333.15 K, x1 = 0.5146 | 5.53
333.15 K, x1 = 0.6015 | 6.52
333.15 K, x1 = 0.7601 | 8.7
333.15 K, x1 = 0.7977 | 9.28
333.15 K, x1 = 0.8098 | 9.55
333.15 K, x1 = 0.8657 | 10.33
333.15 K, x1 = 0.8868 | 10.75
333.15 K, x1 = 0.9533 | 11.76
333.15 K, x1 = 1 | 12.17
338.15 K, x1 = 0.2127 | 2.558
338.15 K, x1 = 0.3007 | 3.195
338.15 K, x1 = 0.4227 | 4.205
338.15 K, x1 = 0.5146 | 5.03
338.15 K, x1 = 0.6015 | 5.88
338.15 K, x1 = 0.658 | 6.52
338.15 K, x1 = 0.7004 | 7.07
338.15 K, x1 = 0.7601 | 7.75
338.15 K, x1 = 0.7977 | 8.26
338.15 K, x1 = 0.8098 | 8.49
338.15 K, x1 = 0.8657 | 9.18
338.15 K, x1 = 0.8868 | 9.55
338.15 K, x1 = 0.9533 | 10.42
338.15 K, x1 = 1 | 10.88
343.15 K, x1 = 0.1 | 1.712
343.15 K, x1 = 0.2127 | 2.37
343.15 K, x1 = 0.3007 | 2.947
343.15 K, x1 = 0.4227 | 3.852
343.15 K, x1 = 0.6015 | 5.33
343.15 K, x1 = 0.658 | 5.88
343.15 K, x1 = 0.7004 | 6.33
343.15 K, x1 = 0.8657 | 8.2
343.15 K, x1 = 0.8868 | 8.52
343.15 K, x1 = 0.9533 | 9.3
343.15 K, x1 = 1 | 9.76
348.15 K, x1 = 0.3007 | 2.729
348.15 K, x1 = 0.4227 | 3.549
348.15 K, x1 = 0.5146 | 4.215
348.15 K, x1 = 0.6015 | 4.9
348.15 K, x1 = 0.7004 | 5.77
348.15 K, x1 = 0.7601 | 6.34
348.15 K, x1 = 0.7977 | 6.71
348.15 K, x1 = 0.8098 | 6.83
348.15 K, x1 = 0.8657 | 7.35
348.15 K, x1 = 0.8868 | 7.64
348.15 K, x1 = 0.9533 | 8.33
348.15 K, x1 = 1 | 8.78
